According to patent US11864555B2, “Soil application of crop protection agents” (PIONEER HI-BRED INTERNATIONAL, INC., priority 2017, dated 2024):
Values belong to the compound of their own block, whether it stands above or below them.

Assays:
[1] = type: in vivo, soybean; settings: delivered via the CRYSTAL GREEN particles
Description: The procedure used for Bead #1 was repeated, using CRYSTAL GREEN® fertilizer and the pesticide used was 50% chlorantraniliprole insecticide treatment. Analysis of the amount of chlorantraniliprole for Bead #14 was determined to be 2.15 μg chlorantraniliprole per milligram of bead. Individual rhizotron growth chambers were used as the test apparatus as described before. Beads #13 and 14, or the control solutions were applied to the center area of the soil plug at about 4 mm depth. All the rhizotron chambers were then transferred to the growth room and fit to black utility boxes with precut 4-inch-depth notches located on the left and right rim of the boxes, allowing the chambers to set at about 90 degree upright position. […]
The rhizotrons were maintained in a growth chamber with controlled temperature and light with a 14-hour day/10-hour night diurnal cycle. […] The amount of water or nutrient used was recorded. Plant growth stages were also recorded and photographed periodically. […]
Plant leaflets were harvested 3 times at 24 days (R1 growth stage), 38 days (R4), and 49 days (R5.5) after planting for quantifying the pesticide concentrations. […] Each CPC was quantified by LC-MSMS method using electro-spray positive ionization mode. […] Remaining soil associated with the dried roots was removed and root weight was measured using an analytical balance.

[2] = Aerobic soil degradation of cyantraniliprole in loam soil; type: physicochemical; settings: 90 days, pH 5.7
Description: Loam soil had 29% sand, 50% silt, and 21% clay with 2.9% organic matter and a pH of 5.7. […] Soil (20.0 to 50 g) was weighed into individual glass containers and moisture was adjusted to field moisture capacity at approximately 27% by weight by adding de-ionized water to the containers. Afterward, the containers were covered with breathable tape and pre-incubated inside a temperature-controlled incubator at 25° C. for 6 days. The tape allowed free oxygen exchange between the container headspace and ambient air while minimizing soil water loss due to evaporation. […] The incubator temperature was monitored by a digital thermometer and Hobo data logger, and soil water loss was monitored by weighing each sample container during the experiment. […] Soil moisture content was brought back to field capacity once every 1-2 weeks by adding de-ionized water equivalent to the amount of moisture that was lost, monitored by weighing each container every week.
At sampling intervals of 0, 3, 7, 14, 28, 56 and 90 days, three containers from each treatment were removed from the incubator, and the 5 cyantraniliprole-containing particles were collected and transferred to 100 mL polypropylene bottles for extraction. […] Cyantraniliprole was separated by HPLC and quantified by UV detection at 220 nm using an external calibration curve of an analytical standard.

[3] = cited from earlier work
[4] = Aerobic soil degradation of cyantraniliprole in Tama soil; type: physicochemical
Description: Aerobic soil degradation of cyantraniliprole in the various beads was determined versus a stock aqueous solution by following the changes in cyantraniliprole concentration over time.
Tama soil (clay-loam soil) was collected and stored in a refrigerator prior to use. […] Soil (10.0 to 68.3 grams) was weighted into glass jars or polypropylene vials and the moisture content was adjusted to 32.4% (Field capacity for this soil) by adding deionized water to the containers. The containers were covered with tape and pre-incubated inside a temperature controlled incubator at 25° C. for 4 days. […] The incubator temperature was monitored by a digital thermometer, and soil water loss was monitored by weighing each sample container during the experiment. […]
At sampling intervals of 0, 3, 7, 14, 21, 28, 35, 56, 100 and 120 days, three containers from each treatment were removed from the incubator, and the four cyantraniliprole-containing particles or pellets in each container were collected and transferred to 100 mL polypropylene bottles for extraction. […] After the overnight extraction, the extracts were allowed to settle and the supernatant was filtered through 0.4 μm pore size polypropylene filters and stored in a −20° C. freezer before quantifying cyantraniliprole. […]

concentrations in leaf samples averaged from 24 to 49 days [1]: 0.097 μg/gram fresh leaves
Structure (SMILES): CNC(=O)c1cc(Cl)cc(C)c1NC(=O)c1cc(Br)nn1-c1ncccc1Cl [Chlorantraniliprole]

Structure (SMILES): CNC(=O)c1cc(C#N)cc(C)c1NC(=O)c1cc(Br)nn1-c1ncccc1Cl [Control E, Cyantraniliprole]
cyantraniliprole degraded by day 90 [2]: ~79%

Structure (SMILES): CO/C=C(/C(=O)OC)c1ccccc1COc1cccc(C(F)(F)F)n1 [Picoxystrobin]
water solubility [3]: 3.25 milligrams/liter

Structure (SMILES): CNC(=O)c1cc(C#N)cc(C)c1NC(=O)c1cc(Br)nn1-c1ncccc1Cl [stock solution, cyantraniliprole]
cyantraniliprole degraded by day 100 ([4]; 100 days, pH 5.8): ~76% | half-life of biodegradation by soil microbes ([4]; Tama soil, 25° C., aerobic): approximately 43 days
